Measurements taken from US9637473B2, “Acrylamide derivatives as antimalarial agents” (priority 2013, dated 2017).
Where a name gives a salt, the structure may show the parent alone.

Each molecule was assayed on P. Falciparum NF54 (assay: Plasmodium falciparum in vitro assay ([3H]-hypoxanthine incorporation)). Conditions: P. Falciparum NF54, erythrocytic stages in human red blood cells, 50% human serum.
Assay type: cell-based
Protocol: In Vitro Antimalarial Activity: Plasmodium falciparum In Vitro Assay: In vitro activity against erythrocytic stages of P. Falciparum in human red blood cells is determined using a [^3H]-hypoxanthine incorporation assay. One strain sensitive to all drugs (P. […] After 48 hours, [^3H]-hypoxanthine (0.5 μCi) is added to each well of a plate. The plates are incubated for a further 24 hours under the same conditions then harvested with a Betaplate cell harvester (Wallac) and washed with distilled water. The dried filters are inserted into a plastic foil with 10 mL of scintillation fluid and counted in a Betaplate liquid scintillation counter. IC50 values are calculated from sigmoidal inhibition curves using Microsoft Excel.

| SMILES | IC50 |
| --- | --- |
| CN1CCC(N2C[C@H]3CC(N(Cc4ccc(N(C)c5ccncc5)cc4)C(=O)/C=C/c4ccc(C(F)(F)F)cc4)C[C@H]3C2)CC1 (single isomer, unassigned) [Example 64] | 12 nM |

Same assay, conditions: Plasmodium falciparum, Erythrocyte, P. Falciparum NF54, erythrocytic stages in human red blood cells, 50% human serum

| SMILES | IC50 |
| --- | --- |
| Cc1cc(Nc2ccc(CN(C(=O)/C=C/c3ccc(C(F)(F)F)cc3)C3CCN(C4CCCC4)CC3)nc2)ccn1 [Example 170, (E)-N-(1-Cyclopentyl-piperidin-4-yl)-N-[5-(2-methyl-pyridin-4-ylamino)-pyridin-2-ylmethyl]-3-(4-trifluoromethyl-phenyl)-acrylamide] | 67 nM |
| CN(c1ccncc1)c1ccc(CN(C(=O)/C=C/c2ccc(C(F)(F)F)cc2)[C@@H]2CCCN(C3CCCC3)C2)cc1 [Example 59, (R,E)-N-(1-cyclopentylpiperidin-3-yl)-N-(4-(methyl(pyridin-4-yl)amino)benzyl)-3-(4-(trifluoromethyl)phenyl)acrylamide] | 80 nM |
| CC(C)N1CCC[C@H](N(Cc2ccc(N(C)c3ccncc3)cc2)C(=O)/C=C/c2ccc(C(F)(F)F)cc2)C1 [Example 83, (E)-N-((S)-1-Isopropyl-piperidin-3-yl)-N-[4-(methyl-pyridin-4-yl-amino)-benzyl]-3-(4-trifluoromethyl-phenyl)-acrylamide] | 120 nM |
| Cc1cc(Nc2ccc(CN(C(=O)/C=C/c3ccc(C(F)(F)F)cc3)C3CCN(C(C)C)CC3)cc2)ccn1 [Example 186, (E)-N-(1-Isopropyl-piperidin-4-yl)-N-[4-(2-methyl-pyridin-4-ylamino)-benzyl]-3-(4-trifluoromethyl-phenyl)-acrylamide] | 43 nM |
| CN(c1ccncc1)c1ccc(CN(C(=O)/C=C/c2ccc(C(F)(F)F)cc2)C2CCN(C3CCCC3)C2)cc1 (racemic) [Example 99, (±)-(E)-N-(1-Cyclopentyl-pyrrolidin-3-yl)-N-[4-(methyl-pyridin-4-yl-amino)-benzyl]-3-(4-trifluoromethyl-phenyl)-acrylamide] | 43 nM |
| CN(c1ccncc1)c1ccc(CN(C(=O)/C=C/c2ccc(C(F)(F)F)cc2)C2CCN(Cc3cccnc3)CC2)cc1 [Example 23, (E)-N-[4-(Methyl-pyridin-4-yl-amino)-benzyl]-N-(1-pyridin-3-ylmethyl-piperidin-4-yl)-3-(4-trifluoromethyl-phenyl)-acrylamide] | 123 nM |
| Cc1cc(Nc2ccc(CN(C(=O)/C=C/c3ccc(Cl)cc3)C3CCN(C4CCN(C)CC4)CC3)cc2)ccn1 [Example 117, (E)-3-(4-Chloro-phenyl)-N-(1′-methyl-[1,4′]bipiperidinyl-4-yl)-N-[4-(2-methyl-pyridin-4-ylamino)-benzyl]-acrylamide] | 305 nM |
| CC(C)CCN1CCCCC(N(Cc2ccc(N(C)c3ccncc3)cc2)C(=O)/C=C/c2ccc(C(F)(F)F)cc2)C1 (racemic) [Example 72, (±)-(E)-N-(1-isopentylazepan-3-yl)-N-(4-(methyl(pyridin-4-yl)amino)benzyl)-3-(4-(trifluoromethyl)phenyl)acrylamide] | 152 nM |
| Cc1cc(N(C)c2ccc(CN(C(=O)/C=C/c3ccc(C(F)(F)F)cc3)C3CCN(C4CCCC4)CC3)cc2)ccn1 [Example 184, (E)-N-(1-Cyclopentyl-piperidin-4-yl)-N-{4-[methyl-(2-methyl-pyridin-4-yl)-amino]-benzyl}-3-(4-trifluoromethyl-phenyl)-acrylamide] | 44 nM |
| Cc1cc(Nc2ccc(CN(CCCN(C)C)C(=O)/C=C/c3ccc(Cl)cc3)cc2)ccn1 [Example 167, (E)-3-(4-Chloro-phenyl)-N-(3-dimethylamino-propyl)-N-[4-(2-methyl-pyridin-4-ylamino)-benzyl]-acrylamide] | 110 nM |
| CN(c1ccncc1)c1ccc(CN(C(=O)/C=C/c2ccccc2Cl)C2CCN(Cc3ccccc3)CC2)cc1 [Example 154, (E)-N-(1-Benzyl-piperidin-4-yl)-3-(2-chloro-phenyl)-N-[4-(methyl-pyridin-4-yl-amino)-benzyl]-acrylamide] | 145 nM |
| Cc1cc(Oc2ccc(CN(C(=O)/C=C/c3ccc(C(F)(F)F)cc3)C3CCN(C4CCCC4)CC3)cc2)cc(C)n1 [Example 208, (E)-N-(1-Cyclopentyl-piperidin-4-yl)-N-[4-(2,6-dimethyl-pyridin-4-yloxy)-benzyl]-3-(4-trifluoromethyl-phenyl)-acrylamide] | 82 nM |
| CCCOc1ccc(/C=C/C(=O)N(Cc2ccc(N(C)c3ccncc3)cc2)C2CCN(Cc3ccccc3)CC2)cc1 [Example 148, (E)-N-(1-Benzyl-piperidin-4-yl)-N-[4-(methyl-pyridin-4-yl-amino)-benzyl]-3-(4-propoxy-phenyl)-acrylamide] | 61 nM |
| CC(C)CCN1CC[C@@H](N(Cc2ccc(N(C)c3ccncc3)cc2)C(=O)/C=C/c2ccc(C(F)(F)F)cc2)[C@H](F)C1 (racemic) [Example 81, (±)-(E)-N-(trans-3-fluoro-1-isopentylpiperidin-4-yl)-N-(4-(methyl(pyridin-4-yl)amino)benzyl)-3-(4-(trifluoromethyl)phenyl)acrylamide] | 122 nM |
| Cc1nc(C)c(/C=C/C(=O)N(Cc2ccc(N(C)c3ccncc3)cc2)C2CCN(Cc3ccccc3)CC2)s1 [Example 163, (E)-N-(1-Benzyl-piperidin-4-yl)-3-(2,4-dimethyl-thiazol-5-yl)-N-[4-(methyl-pyridin-4-yl-amino)-benzyl]-acrylamide] | 289 nM |
| CN(c1ccncc1)c1ccc(CN(C(=O)/C=C/c2ccc(C(F)(F)F)cc2)C2CCN(CCC(F)(F)F)CC2)cc1 [Example 16, (E)-N-[4-(Methyl-pyridin-4-yl-amino)-benzyl]-3-(4-trifluoromethyl-phenyl)-N-[1-(3,3,3-trifluoro-propyl)-piperidin-4-yl]-acrylamide] | 154 nM |
| Cc1ccc(CN2CCC(N(Cc3ccc(N(C)c4ccncc4)cc3)C(=O)/C=C/c3ccc(C(F)(F)F)cc3)CC2)cc1 [Example 12, (E)-N-[1-(4-Methyl-benzyl)-piperidin-4-yl]-N-[4-(methyl-pyridin-4-yl-amino)-benzyl]-3-(4-trifluoromethyl-phenyl)-acrylamide] | 29 nM |
| Cc1cc(Nc2ccc(CN(C(=O)/C=C/c3ccc(C(F)(F)F)cc3)C3CCN(Cc4ncccn4)CC3)cc2)ccn1 [Example 47, (E)-N-[4-(2-Methyl-pyridin-4-ylamino)-benzyl]-N-(1-pyrimidin-2-ylmethyl-piperidin-4-yl)-3-(4-trifluoromethyl-phenyl)-acrylamide] | 345 nM |
| Cc1cc(Nc2ccc(CN(C(=O)/C=C/c3ccc(C(F)(F)F)cc3)C3CCN(C4CCCC4)CC3)cn2)ccn1 [Example 168, (E)-N-(1-Cyclopentyl-piperidin-4-yl)-N-[6-(2-methyl-pyridin-4-ylamino)-pyridin-3-ylmethyl]-3-(4-trifluoromethyl-phenyl)-acrylamide] | 42 nM |
| CN(c1ccncc1)c1ccc(CN(C(=O)/C=C/c2cccc(Cl)c2)C2CCN(Cc3ccccc3)CC2)cc1 [Example 153, (E)-N-(1-Benzyl-piperidin-4-yl)-3-(3-chloro-phenyl)-N-[4-(methyl-pyridin-4-yl-amino)-benzyl]-acrylamide] | 87 nM |
| Cc1cc(Nc2ccc(CN(C(=O)/C=C/c3ccc(C(F)(F)F)cc3)C3CCN(Cc4ccc(O)c(CN(C)C)c4)CC3)cc2)ccn1 [Example 53, (E)-N-[1-(3-Dimethylaminomethyl-4-hydroxy-benzyl)-piperidin-4-yl]-N-[4-(2-methyl-pyridin-4-ylamino)-benzyl]-3-(4-trifluoromethyl-phenyl)-acrylamide] | 12 nM |
| CC(C)N1CCC(N(Cc2cncc(Nc3ccncc3)c2)C(=O)/C=C/c2ccc(C(F)(F)F)cc2)CC1 [Example 141, (E)-N-(1-Isopropyl-piperidin-4-yl)-N-[5-(pyridin-4-ylamino)-pyridin-3-ylmethyl]-3-(4-trifluoromethyl-phenyl)-acrylamide formate] | 82 nM |
| O=C(/C=C/c1ccc(C(F)(F)F)cc1)N(Cc1ccc(-c2ncccn2)cc1)C1CCN(C2CCCC2)CC1 [Example 203, (E)-N-(1-Cyclopentyl-piperidin-4-yl)-N-(4-pyrimidin-2-yl-benzyl)-3-(4-trifluoromethyl-phenyl)-acrylamide] | 400 nM |
| CC(C)N1CCC(N(Cc2cccc(N(C)c3ccncc3)n2)C(=O)/C=C/c2ccc(C(F)(F)F)cc2)CC1 [Example 127, (E)-N-(1-Isopropyl-piperidin-4-yl)-N-[6-(methyl-pyridin-4-yl-amino)-pyridin-2-ylmethyl]-3-(4-trifluoromethyl-phenyl)-acrylamide formate] | 184 nM |
| CC(=O)n1cc(CN2CCC(N(Cc3ccc(N(C)c4ccncc4)cc3)C(=O)/C=C/c3ccc(C(F)(F)F)cc3)CC2)c2ccccc21 [Example 28, (E)-N-[1-(1-Acetyl-1H-indol-3-ylmethyl)-piperidin-4-yl]-N-[4-(methyl-pyridin-4-yl-amino)-benzyl]-3-(4-trifluoromethyl-phenyl)-acrylamide] | 44 nM |
| Cc1cc(Nc2ccc(CN(C(=O)/C=C/c3ccc(C(F)(F)F)cc3)C3CCN(C4CCCC4)CC3)cc2)ccn1 [Example 95, (E)-N-(1-Cyclopentyl-piperidin-4-yl)-N-[4-(2-methyl-pyridin-4-ylamino)-benzyl]-3-(4-trifluoromethyl-phenyl)-acrylamide] | 13 nM |
| CC(C)N1CCC(N(Cc2cccc(Nc3ccncc3)n2)C(=O)/C=C/c2ccc(C(F)(F)F)cc2)CC1 [Example 132, (E)-N-(1-Isopropyl-piperidin-4-yl)-N-[6-(pyridin-4-ylamino)-pyridin-2-ylmethyl]-3-(4-trifluoromethyl-phenyl)-acrylamide formate] | 22 nM |
| CN1CCC(N(C)c2ccc(CN(C(=O)/C=C/c3ccc(C(F)(F)F)cc3)C3CCN(C4CCCC4)CC3)cn2)CC1 [Example 106, (E)-N-(1-Cyclopentyl-piperidin-4-yl)-N-{6-[methyl-(1-methyl-piperidin-4-yl)-amino]-pyridin-3-ylmethyl}-3-(4-trifluoromethyl-phenyl)-acrylamide] | 348 nM |
